Reference: article PMC4585929, “Cargo Delivery into the Brain by in vivo identified Transport Peptides” (Scientific Reports, 2015)
Entries after “also recorded” stand apart in the source; their conditions may differ.

How the values were obtained:
[1] = CSF sampling model: phage recovered from CSF of cisterna magna cannulated conscious rats after i.v. injection (plaque counting); type: in vivo, rat
Excerpt: (§1) The cisterna magna (CM) was cannulated using modification of methods previously described. Anesthetized Wistar rats (200–350 g) were mounted onto a stereotaxic device and a median incision was made on the top of the shaved and aseptically prepared skin of head to expose the skull. Two holes were drilled at the parietal region and mounting screws were secured in the holes. An additional hole was drilled at the external occipital crest and used to stereotactically guide the stainless steel cannula into the CM. Dental cement was applied around the cannula and the screws to hold it in place. After light curing and solidification of the cement, the skin wound was sutured with a 4/0 supramid yarn. Correct placement of the cannula is confirmed by spontaneous flow of cerebrospinal fluid (CSF). The rats were removed from the stereotaxic apparatus, received appropriate post-operative care and analgesic treatment and allowed to recover for at least one week until no sign of blood in the CSF was observed. Wistar rats (Crl:WI/Han) were obtained from Charles River (France). All rats were kept under specific pathogen-free conditions. All animal experiments were approved by the Swiss Veterinary Office Basel-Stadt and were carried out in accordance with the animal permission #2474 (Assessment of active brain transport by measuring the level of therapeutic candidates in the rat CSF and brain).
The CM cannulated conscious rats were gently held in the hand. The mandrain was pulled out of the cannula and 10ul of the spontaneous flowing CSF was collected. Only clear CSF samples with no sign of blood contamination or discoloration were included in this study since patency of the cannula was eventually compromised. In parallel ∼10–20 μL blood from a small incision of the tip of the tail was collected in heparin (Sigma-Aldrich) containing tubes. CSF and blood was collected at different time points after intravenous injection of the T7 bacteriophages. Prior to collecting every CSF sample ∼5–10 μL of fluid was discarded, which represents the catheter dead volume.
The amplified phages underwent 2–3 rounds of endotoxin removal using endotoxin removal beads (Miltenyi Biotec) before intravenous (i.v.) injection (500 ul/animal). 2 × 10^12 phages were injected in the first, 2 × 10^10 phages were injected in the second and 2 × 10^9 phages were injected per animal in the third and fourth round of selection. The phage contents in the CSF and blood samples harvested at the indicated time-points were determined by a plaque counting assay according to the manufacturer’s instructions (T7Select System Manual). Phage selection was carried out by i.v. tail vein injection of the purified library or by re-injection of the CSF recovered phages of the previous selection round, and 10 min, 30 min, 60 min, 90 min, 120 min, 180 min respectively 240 min later CSF and blood samples were collected. A total of four rounds of in vivo panning were performed in which two selection branches were kept and analyzed separately during the first three selection rounds. All CSF recovered phage inserts of the first two selection rounds were subjected to 454/Roche pyrosequencing whereas all CSF recovered clones of the last two selection rounds were manually sequenced. All blood harvested phages of the first selection round were also 454/Roche pyrosequenced. For the injection of the phage clones the selected phages were amplified in E. coli (BL5615) on 500 cm^2 plates at 37 °C for 4 hours. The individually picked and manually sequenced clones were amplified in TB medium. After phage extraction, purification and endotoxin removal steps (described above) 2 × 10^10 phages/animal in 300 μl were i.v. injected into one tail vein.
Supplementary Figure 3 – Pharmacokinetic profiles of wt T7 phage in the CSF and blood
compartments. Determination of the clearance of wt phage from the blood and their occurrence in
the CSF compartment over time. […]

[2] = test system: brain capillaries; assay: Immunohistochemistry of phage particles in rat brain 1 hour after i.v. injection; type: in vivo; conditions: 2 × 10^10 phage/animal, FITC anti-T7 antibody
Procedure: Selected phage clones and insertless phage were i.v. injected via tail vein (2 × 10^10 phage/animal in 300 μl PBS). 10 minutes before perfusion and subsequent fixation 100 ul DyLight594 labeled lectin (Vector Laboratories Inc., DL-1177) was i.v. injected into the same animals. 60 minutes after phage administration rats were perfused through the heart with 50 ml PBS followed by 50 ml 4% PFA/PBS. Brain samples were additionally fixed by 4% PFA/PBS overnight and immersed in 30% sucrose at 4 °C overnight. Samples were frozen quickly in O.C.T. compound. Frozen samples were subject to immunohistochemistry, performed on 30 um freezing sections blocked with 1% BSA for 2 hours at room temperature and incubated with a polyclonal FITC labeled antibody against the T7 phage (Novus NB 600-376A) overnight at 4 °C. Finally, the sections were then washed 3 times with PBS and observed with a laser confocal microscope (Leica TCS SP5).

[3] = Blood pharmacokinetics of i.v. injected T7 phage in cisterna magna cannulated rats (plaque counting); type: in vivo, rat
Excerpt: as §1
The CM cannulated conscious rats were gently held in the hand. The mandrain was pulled out of the cannula and 10ul of the spontaneous flowing CSF was collected. […]
The amplified phages underwent 2–3 rounds of endotoxin removal using endotoxin removal beads (Miltenyi Biotec) before intravenous (i.v.) injection (500 ul/animal). […] The phage contents in the CSF and blood samples harvested at the indicated time-points were determined by a plaque counting assay according to the manufacturer’s instructions (T7Select System Manual). […] A total of four rounds of in vivo panning were performed in which two selection branches were kept and analyzed separately during the first three selection rounds. […]

[4] = 2 × 10^10 phages/animal i.v., CM cannulated rats, result in words
[5] = wt T7 phage, 1x10^10 phage i.v., 4 cannulated rats, plaque counting
[6] = wt phage i.v., average over entire sampling period (0–250 minutes)

Row | Sequence | CSF concentration course over the sampling time [1, 4] | CSF titer change during the first 10 minutes [1, 4] | long term CSF profile over 48 hour period ([1]; 2 × 10^10 phages/animal i.v., at least three CM cannulated rats, result in words) | CSF titer relative to empty control phage (#1779) ([1]; 2 × 10^10 phages/animal tail vein i.v., at least 3 CM cannulated rats each) | phage staining in the brain capillaries (IHC) [2] | stability in the blood / plasma half-life compared to other hits [3, 4] | half-life in CSF [1, 5] [min] | CSF phage as percentage of the blood T7 phage titer [1, 6] | CSF phage as percentage of the initially injected phage [1, 6] | CSF phage as percentage of the blood T7 phage titer ([1]; wt phage i.v., average over entire sampling period (0–250 minutes), listed as wt T7 phages) [%] | injected dose of wt phage detected in the blood 10 min post i.v. injection ([3]; rat, tail vein i.v., calculated from injected titer and rat blood volume) | half-life in blood (slower first-order clearance after initial rapid drop) [3, 5] [min]
1 | RLSSVDSDLSGC [#2077, T7 phage clone displaying …; also synthesized as N-terminally biotinylated transport peptide] | stabilized at a high level | increased during the first 10 minutes | rapid increase in CSF and a sustainable level | about 1000 fold | strong staining in the brain capillaries | increased stability in the blood; also recorded: prolonged plasma half-life compared to other hits |  |  |  |  |  | 
2 | PAGISRELVDKL [wt phage, wild-type T7 phage with backbone 12-mer insert …, reference compound] |  |  |  |  |  |  | 25.7 | about 1 × 10^−3% | ~4 × 10^−8% | 0.001 | about 1% | 27.7
